From article PMC11276849, “A Female-Biased Chemosensory Protein PxutCSP19 in the Antennae of Papilio xuthus Tuned to Host Volatiles and Insecticides” (Insects, 2024) come the findings set out here.

Assay [1] has as its target T1, PxutCSP19 (Papilio xuthus, UniProt A0A194QJK0). The assay can be described thus: Binding of fluorescent probe 1-NPN to wildtype PxutCSP19 (titration, Scatchard). On the procedure: (§1) In order to investigate the ligand-binding properties of PxutCSP19 to host odorants and insecticides, we first asked whether this fluorescent probe 1-NPN was available for the binding of PxutCSP19. To calculate the binding ability of PxutCSP19 to 1-NPN, we titrated different final concentrations of 1-NPN (2~20 μM) into Tris-HCl buffer (pH 7.4) containing 2 μM PxutCSP19. The binding constant (K1-NPN) of 1-NPN to this protein was determined with GraphPad Prism 7 (GraphPad Software Inc., San Diego, CA), as previously described. The solution was excited at 337 nm and the emission peak was monitored at 414 nm on an RF-5301PC spectrofluorometer (Shimadzu, Kyoto, Japan) using a quartz micro-cuvette filled with a 100 μL mixture, with 5 nm excitation and emission slit widths. If the host odorant molecules could displace more than 40% of the 1-NPN fluorescence from the binding cavity of PxutCSP19, the compounds would be continuously added up to 36 μM with triplicates. For the binding experiments, each compound would be added into the PxutCSP19/1-NPN (each 2 μM) complex with final concentrations of 2~20 μM. […]

In assay [2] the target is T2, PxutCSP19-T1 (Papilio xuthus, UniProt A0A194QJK0).
T2 sequence (A0A194QJK0 35-142): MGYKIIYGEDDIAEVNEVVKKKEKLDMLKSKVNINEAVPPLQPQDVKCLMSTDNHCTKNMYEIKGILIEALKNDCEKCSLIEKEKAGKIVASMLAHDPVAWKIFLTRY
The experiment in a line: Binding of fluorescent probe 1-NPN to PxutCSP19-T1 (titration, Scatchard). The following applies: read-out: K1-NPN (binding constant of 1-NPN). On the procedure: as §1

Assay [3] deals with T3, PxutCSP19-T2 (Papilio xuthus, UniProt A0A194QJK0).
T3 sequence (A0A194QJK0 53-142): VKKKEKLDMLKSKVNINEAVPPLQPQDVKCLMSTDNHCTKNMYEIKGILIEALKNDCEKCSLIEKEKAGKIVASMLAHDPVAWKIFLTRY
The assay can be described thus: Binding of fluorescent probe 1-NPN to PxutCSP19-T2 (titration, Scatchard). The following applies: read-out: K1-NPN (binding constant of 1-NPN). The method, then:
as §1

Assay [4] has as its target T3, PxutCSP19-T2. The assay can be described thus: Fluorescence competitive binding assay (1-NPN displacement), truncated PxutCSP19-T2. On the procedure: (§2) In order to investigate the ligand-binding properties of PxutCSP19 to host odorants and insecticides, we first asked whether this fluorescent probe 1-NPN was available for the binding of PxutCSP19. To calculate the binding ability of PxutCSP19 to 1-NPN, we titrated different final concentrations of 1-NPN (2~20 μM) into Tris-HCl buffer (pH 7.4) containing 2 μM PxutCSP19. The binding constant (K1-NPN) of 1-NPN to this protein was determined with GraphPad Prism 7 (GraphPad Software Inc., San Diego, CA), as previously described. The solution was excited at 337 nm and the emission peak was monitored at 414 nm on an RF-5301PC spectrofluorometer (Shimadzu, Kyoto, Japan) using a quartz micro-cuvette filled with a 100 μL mixture, with 5 nm excitation and emission slit widths. If the host odorant molecules could displace more than 40% of the 1-NPN fluorescence from the binding cavity of PxutCSP19, the compounds would be continuously added up to 36 μM with triplicates. For the binding experiments, each compound would be added into the PxutCSP19/1-NPN (each 2 μM) complex with final concentrations of 2~20 μM. […] We used the Ki values to compare the binding affinities of various ligands with the equation: Ki = [IC50]/(1 + [1-NPN]/K1-NPN), where IC50 represents the ligand concentrations displacing one half of the initial protein/1-NPN fluorescence, and [1-NPN] is the free concentration of 1-NPN at 2 μM.
(§3) To determine the effects of an extended N-terminal sequence (approximately 35 amino acids) on the binding specificity of PxutCSP19 to ligands, we next constructed two truncated PxutCSP19s. Firstly, the front 17 amino acids (i.e., EITIGGIERTMSPGVKS, defined as PxutCSP19-T1) and the front 35 amino acids (i.e., […], defined as PxutCSP19-T2) of the N-terminal region without the signal peptide were truncated, respectively. Secondly, the two truncated ORFs (PxutCSP19-T1: 360 bp and PxutCSP19-T2: 306 bp) of PxutCSP19s were separately amplified using RT–PCR with gene-specific primers (Table S2). After that, the amplified products were sub-cloned into pET-30a (+), i.e., pET-30a (+)/PxutCSP19-T1 and pET-30a (+)/PxutCSP19-T2. Using the above-described methods for the expression and purification of proteins, we obtained two truncated proteins. Furthermore, the binding characteristics of the truncated PxutCSP19s to ligands with high affinities were investigated, representing six host odorants and eight insecticides.

Assay [5] addresses T1, PxutCSP19. The assay can be described thus: Fluorescence competitive binding assay (1-NPN displacement), wildtype PxutCSP19.
Text: The open reading frame (ORF) of PxutCSP19 was cloned with a PrimeSTAR®® Max DNA Polymerase (TaKaRa, Liaoning, Dalian, China) and gene-specific primers containing restriction enzyme sites (BamH I and Xho I) (Table S2). The PCR products were detected on a 1.5% (w/v) agarose gel, and the expected bands were cut and purified using a HiPure Gel Pure DNA Mini Kit (Magen, Guangzhou, China). Next, BamH I and Xho I were used to digest the PxutCSP19 products and pET-30a (+) plasmids, followed by purification. A T4 DNA ligase (Thermo Fisher Scientific, Waltham, MA, USA) was applied to the construction of the recombinant plasmids pET-30a (+)/PxutCSP19. After being confirmed by sequencing, the plasmids were transformed into BL21 (DE3) competent cells so as to express recombinant proteins with 1.0 mM isopropyl β-D-thiogalactoside (IPTG). Because this recombinant protein pET-30a (+)/PxutCSP19 was insoluble, we applied a protein denaturation–renaturation approach to purify PxutCSP19 with an affinity chromatography technique, in which the denaturation buffer included 8 M urea and 1.0 mM β-mercaptoethanol.
as §2

The target of assay [6] is T2, PxutCSP19-T1. The experiment in a line: Fluorescence competitive binding assay (1-NPN displacement), truncated PxutCSP19-T1. The method, then: as §2, §3

SMILES strings stand for the structures.

T1 sequence (A0A194QJK0 entry or part of it): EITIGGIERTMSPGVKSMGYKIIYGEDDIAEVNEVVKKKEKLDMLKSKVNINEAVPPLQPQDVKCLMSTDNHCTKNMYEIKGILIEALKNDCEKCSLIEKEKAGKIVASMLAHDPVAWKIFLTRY

Take `c1ccc(Nc2cccc3ccccc23)cc1` [1-NPN, N-phenyl-1-naphthylamine]: the Kd on PxutCSP19 [1] stood at 2.65 ± 0.35 µM; at PxutCSP19-T1 [2], 2.12 ± 0.47 µM; on PxutCSP19-T2 [3] it was 2.5 ± 0.25 µM.

The Ki is a measure of affinity in units of concentration, obtained from inhibition or displacement. In general, IC50 refers to the concentration that inhibits the measured activity by half. Take `CC(C)=CCC/C(C)=C\CO` [Nerol]: the inhibition at 20 µM was 40.8% on PxutCSP19-T2 [4] (T2 (35 N-terminal residues truncated), ligand at 20 μM, read-out: F.D. (fluorescent displacement rate of ligands)); more than 40% on PxutCSP19 [5] (read-out: F.D. (fluorescent displacement rate of ligands), Wildtype (WT), ligand at 20 μM, PxutCSP19/1-NPN each 2 μM, NB = no binding); 39.4% on PxutCSP19-T1 [6] (T1 (17 N-terminal residues truncated), ligand at 20 μM, read-out: F.D. (fluorescent displacement rate of ligands)). Further, the inhibition constant Ki on PxutCSP19-T2 [4] (T2, Ki = [IC50]/(1 + [1-NPN]/K1-NPN)) was 22.2 ± 0.56 µM; on PxutCSP19-T1 [6] (T1, Ki = [IC50]/(1 + [1-NPN]/K1-NPN)) it was 21.84 ± 0.02 µM. The IC50 worked out at 33.8 ± 0.85 µM at PxutCSP19-T2 [4] (T2, read-out: IC50); 34 ± 1.46 µM at PxutCSP19 [5]; 34.75 ± 0.03 µM on PxutCSP19-T1 [6] (T1, read-out: IC50).
